Measured values reported in patent US4929445A, “Method for inhibiting Listeria monocytogenes using a bacteriocin” (Microlife Technics, Inc., priority 1988, dated 1990).

Experiments:
Listeria monocytogenes [1] = test: Effect of PA-1 powder on an exponential culture (turbidity at 660 nm); assay type: cell-based; details: 200 U/ml and 500 U/ml added after 3.75 hours, APT broth, 32° C.
Experimental: The PA-1 powder was added to a L. monocytogenes culture at 200 U(units)/ml or 500 U/ml and turbidity (which is an indicator of the number of cells) was monitored over time at 660 nanometers. The symbols used are , control (no PA-1 added); .circle., 200 U/ml PA-1; .quadrature., 500 U/ml PA-1.
Sterile PA-1 bacteriocin powder was added to an exponential culture of Listeria monocytogenes at a rate of 200 U/ml of broth and 500 U/ml of broth. Listeria monocytogenes was grown in APT broth at 32° C. Absorbance was followed over time at 660 nm.

Listeria monocytogenes [2] = test: Activity of PA-1 against Listeria monocytogenes in dressed Cottage cheese; assay type: cell-based
Experimental: Listeria monocytogenes was added to dressed Cottage cheese (pH 5.1) at a rate of 6.5×10^3 cfu/gram of dressed Cottage cheese. The bacteriocin powder to Example 1 (PA-1) was added to the Cottage cheese at a rate of 10 or 50 U (units)/g dressed Cottage cheese. The samples were mixed and incubated at 4° C. and aliquots were removed and plated onto McBride's Agar (Difco, Detroit, Mich.) and incubated at 32° C. and examined for growth of Listeria monocytogenes.

[3] = tested on: Pediococcus pentosaceus FBB63C; test: MIC and MBC by two-fold broth dilution; assay type: cell-based; details: APT broth, 24 hours at 32° C.
[4] = cited from earlier work
[5] = tested on: Lactococcus, Streptococcus, Staphylococcus, Micrococcus and Lactobacillus strains; details: Lactococcus lactis, L. lactis subsp. diacetylactis, L. cremoris, Streptococcus thermophilus, Staphylococcus aureus, xylosus, epidermidis, carnosus, Micrococcus varians, sodonensis, Lactobacillus acidophilus, bulgaricus; cited from earlier work
Listeria monocytogenes [6] = test: Activity of PA-1 against Listeria monocytogenes in cheese sauce; assay type: cell-based; details: cheese sauce pH 5.25, 4° C., LM 5.3 × 10^3 cells per gram
Experimental: Listeria monocytogenes was added to the cheese sauce (pH 5.25) at a rate of 5.3×10^3 cfu/g of cheese sauce. The bacteriocin powder PA-1 was added to the cheese sauce at a rate of 10 or 50 U/g of sauce. The samples were mixed and incubated at 4° C. and aliquots were removed and examined for growth of Listeria monocytogenes.

Listeria monocytogenes [7] = test: Activity of PA-1 against Listeria monocytogenes in half and half cream; assay type: cell-based; details: half and half cream pH 6.7, 4° C., LM 4.3 × 10^3 cells per ml, PA-1 50 U/ml
Experimental: Listeria monocytogenes was added to the cream (pH 6.7) at a rate of 4.3×10^3 cfu/ml of cream. The bacteriocin powder PA-1 was added to the cream at a rate of 10 or 50 U/ml cream. The samples were mixed and incubated at 4° C. and aliquots were removed and examined for growth of Listeria monocytogenes .

[8] = tested on: Listeria monocytogenes LM01; test: MIC and MBC by two-fold broth dilution; assay type: cell-based; details: APT broth, 24 hours at 32° C.
Experimental: Bacteriocin PA-1 powder was dissolved in APT broth and two-fold serially diluted to concentrations ranging from 1000 U/ml to 2.0 U/ml. Approximately 1×10^3 Listeria monocytogenes/ml were added to each of the tubes which then were incubated for 24 hours at 32° C. The MIC value was the lowest concentration tube displaying no visible turbidity.

Q: Which “Effect on exponential culture, absorbance at 660 nm” value (Listeria monocytogenes [1]) does the source give for “PA-1: bacteriocin of about 16,500 daltons produced by Pediococcus acidilactici NRRL-B-18050 (PAC 1.0); tested as lyophilized culture supernatant powder with nonfat dry milk” here?
A: not only inhibitory but also bacteriocidal

Q: And the “Growth of Listeria at 24 h” value (Listeria monocytogenes [2]; dressed Cottage cheese pH 5.1, 4° C., LM 6.5 × 10^3 cells per gram, PA-1 10 U/g)?
A: 0 cfu/g

Q: And the “Growth of Listeria at 24 h” value (Listeria monocytogenes [2]; dressed Cottage cheese pH 5.1, 4° C., LM 6.5 × 10^3 cells per gram, PA-1 50 U/g)?
A: 0 cfu/g

Q: What about the “Growth of Listeria at 24 h” value (Listeria monocytogenes [2]; dressed Cottage cheese, 4° C., no LM added, PA-1 50 U/g) of the same substance?
A: 0 cfu/g

Q: What about the MBC ([3]; no CFU on APT agar) of the same substance?
A: 31.3 U/ml

Q: And the MIC ([3]; no visible turbidity)?
A: 7.8 U/ml

Q: And the “Effect of heating on the bacteriocin” value ([4]; heating to 100° C. in water)?
A: unaffected

Q: What about the “Effect of proteolytic enzymes on the bacteriocin” value ([4]; in vitro mixing with protease, papain or alpha-chymotrypsin) of the same substance?
A: inactivated

Q: What about the “Effect of other enzymes on the bacteriocin” value ([4]; phospholipase C, lysozyme, Dnase and RNase) of the same substance?
A: unaffected

Q: And the “Inhibitory activity against other gram positive bacteria” value [5]?
A: No activity was found

Q: And the “Growth of Listeria at 24 h” value (Listeria monocytogenes [6]; PA-1 10 U/g)?
A: 4.0 × 10^2 cfu/g

Q: What about the “Growth of Listeria at 24 h” value (Listeria monocytogenes [6]; PA-1 50 U/g) of the same substance?
A: 0 cfu/g

Q: What about the “Growth of Listeria at 24 h” value (Listeria monocytogenes [7]) of the same substance?
A: 0 cfu/g

Q: What about the MBC ([8]; no CFU on APT agar) of the same substance?
A: 7.8 U/ml

Q: And the MIC ([8]; about 1×10^3 cells/ml, no visible turbidity)?
A: < 2.0 U/ml
